Measurements: publication PMC12615753, “Glutathione as a taste modulator: molecular mechanisms of interaction with umami and sweet taste receptors” (Food Chemistry: Molecular Sciences, 2025)

Biological target: T1, hTAS1R1 A170W/rTAS1R3 (UniProt Q7RTX1+Q923K1, A170W)
T1 construct: The cDNA coding region of rTAS1R3 was synthesized with optimized-codon usage for human expression; expressed in transfected cells; host or cells: HEK293T/17
T1 sequence (Q7RTX1 21-841 A170W): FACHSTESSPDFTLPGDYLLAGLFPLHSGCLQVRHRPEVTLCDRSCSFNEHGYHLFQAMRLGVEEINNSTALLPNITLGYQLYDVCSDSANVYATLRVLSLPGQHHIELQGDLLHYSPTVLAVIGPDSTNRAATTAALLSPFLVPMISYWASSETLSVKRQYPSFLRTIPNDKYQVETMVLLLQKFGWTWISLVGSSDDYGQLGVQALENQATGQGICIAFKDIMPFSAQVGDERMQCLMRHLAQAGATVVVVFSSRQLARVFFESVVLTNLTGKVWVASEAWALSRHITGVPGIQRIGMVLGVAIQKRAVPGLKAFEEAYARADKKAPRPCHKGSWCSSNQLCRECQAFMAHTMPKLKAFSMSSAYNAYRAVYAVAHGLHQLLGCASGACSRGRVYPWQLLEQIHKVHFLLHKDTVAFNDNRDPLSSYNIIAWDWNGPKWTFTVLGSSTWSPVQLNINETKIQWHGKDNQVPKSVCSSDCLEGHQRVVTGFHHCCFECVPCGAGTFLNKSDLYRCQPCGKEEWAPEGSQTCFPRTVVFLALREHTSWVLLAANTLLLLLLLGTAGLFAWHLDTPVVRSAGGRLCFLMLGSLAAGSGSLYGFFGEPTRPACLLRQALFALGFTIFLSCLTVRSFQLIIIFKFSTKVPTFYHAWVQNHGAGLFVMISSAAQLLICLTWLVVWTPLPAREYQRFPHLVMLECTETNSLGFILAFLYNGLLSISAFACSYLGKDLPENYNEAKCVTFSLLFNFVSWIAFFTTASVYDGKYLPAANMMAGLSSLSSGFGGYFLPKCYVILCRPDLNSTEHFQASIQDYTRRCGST
T1 sequence (Q923K1 21-858): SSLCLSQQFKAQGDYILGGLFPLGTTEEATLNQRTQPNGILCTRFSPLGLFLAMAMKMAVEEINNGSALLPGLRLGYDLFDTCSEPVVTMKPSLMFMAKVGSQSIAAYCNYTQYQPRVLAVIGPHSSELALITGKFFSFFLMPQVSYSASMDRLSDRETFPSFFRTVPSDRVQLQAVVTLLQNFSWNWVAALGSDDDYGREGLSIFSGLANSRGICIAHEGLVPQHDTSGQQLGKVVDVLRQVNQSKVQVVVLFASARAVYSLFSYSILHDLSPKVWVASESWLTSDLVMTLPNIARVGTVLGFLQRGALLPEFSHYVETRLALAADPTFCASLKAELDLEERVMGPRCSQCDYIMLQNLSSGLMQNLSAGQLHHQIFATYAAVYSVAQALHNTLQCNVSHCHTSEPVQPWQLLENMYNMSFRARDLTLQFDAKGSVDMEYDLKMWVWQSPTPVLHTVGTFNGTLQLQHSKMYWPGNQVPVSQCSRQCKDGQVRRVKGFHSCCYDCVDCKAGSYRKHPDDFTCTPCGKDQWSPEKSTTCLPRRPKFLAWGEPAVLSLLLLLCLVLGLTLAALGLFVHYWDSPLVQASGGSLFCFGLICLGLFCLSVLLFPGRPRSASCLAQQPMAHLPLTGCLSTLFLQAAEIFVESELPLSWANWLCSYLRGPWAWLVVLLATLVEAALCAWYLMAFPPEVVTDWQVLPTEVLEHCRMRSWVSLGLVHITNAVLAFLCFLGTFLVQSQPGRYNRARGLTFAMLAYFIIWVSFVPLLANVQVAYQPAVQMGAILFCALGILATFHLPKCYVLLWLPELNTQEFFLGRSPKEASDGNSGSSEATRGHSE
Test: Calcium assay, hTAS1R1 mutant co-expressed with rTAS1R3
Assay type: cell-based, human, rat

Row | SMILES | EC50 | Max ∆F/F0 (A170W, GSH) | R1 = mutant EC50/WT EC50 (A170W, GSH) | response to the agonist alone, vs WT (A170W)
1 | N[C@@H](CCC(=O)N[C@@H](CS)C(=O)NCC(=O)O)C(=O)O [GSH, γ-L-glutamyl-L-cysteinyl-glycine] | 5.29 ± 1.56 mM | 0.09 ± 0.01 | 2.1 | 
2 | N[C@@H](CCC(=O)O)C(=O)O [L-Glu, L-glutamic acid, reference compound] |  |  |  | completely suppressed
